Reference: patent US4879370A, “Glutathione delivery system” (Cornell Research Foundation, Inc., priority 1985, dated 1989)

How the values were obtained:
[1] = system: glutathione levels of the liver and kidney; assay: Liver and kidney glutathione levels of fasted mice given glutathione ester or glutathione (Example 1, Comparative Example 1); type: in vivo
Method: A solution of the glutathione ester was prepared in aseptic water. […] At intervals of 2 hours, as shown in FIGS. 1(a) and (b), the animals were decapitated and the liver and kidney tissues were removed and analyzed for glutathione. Using groups of 3 mice each, values are given as means±S.D.

[2] = system: mice given a lethal dose of acetaminophen; details: acetaminophen 5 mmole per kilogram, ester 10 mmole per kilogram 1 hour later, 15 mice
[3] = system: glutathione levels of the liver and kidney; assay: Liver and kidney glutathione levels of mice pretreated with buthionine sulfoximine (Example 2); type: in vivo; details: 2 mmol/kg buthionine sulfoximine
Text: Controls were again given saline, with tissue levels of GSH being determined at the indicated intervals. Values are means±S.D., using groups of 3 mice each.

[4] = system: GSH level in the liver and in the kidney; assay: GSH level in liver and kidney of starved mice, time course (Example 6); type: in vivo; details: mice starved 24 hours, 10 mmol/kg i.p., 2 to 3 hours after the administration
Method: The test compound was dissolved in sterile water to give a test solution. Groups of 3 mice, each having a body weight of 20 to 25 g, were starved over a period of 24 hours and treated intraperitoneally with a dose of 10 mmol/kg of the test compound. Mice were dissected by every two hours, and the liver and kidney were taken out. GSH analysis was performed on each of the organs.

[5] = system: mice treated with lethal dose of acetaminophen; assay: Survival of starved mice after lethal dose of acetaminophen (Example 8); type: in vivo; details: acetaminophen 5 mmol/kg i.p., test compound 10 mmol/kg one hour later, 15 mice
Text: Starved mice were intraperitoneally treated with 5 mmol/kg (lethal dose) of acetaminophen and, one hour later, with 10 mmol/kg of the test compound.

[6] = mice fasted 24 hours, intraperitoneal 10 millimoles per kilogram, 2 hours after administration, vs 0.15M NaCl controls

SMILES | GSH level in the kidney [4] | GSH level in the liver [4] | survival after 7 days [5] | further results
CCOC(=O)CNC(=O)[C@H](CS)NC(=O)CC[C@H](N)C(=O)O [glutathione monoethyl ester, L-γ-Glutamyl-L Cysteinyl Glycyl Ethyl Ester] |  |  |  | effects on liver and kidney glutathione levels compared with glutathione monomethyl ester ([1]; fasted mice, as Example 1): about the same
COC(=O)CNC(=O)[C@H](CS)NC(=O)CC[C@H](N)C(=O)O [glutathione monomethyl ester] |  |  |  | glutathione level of the kidney [1, 6]: increased substantially; glutathione level of the liver [1, 6]: increased substantially; fatalities / survival at 7 days [2]: no fatalities were observed
CCCCS(=N)(=O)CCC(N)C(=O)O (centres unmarked) [buthionine sulfoximine] |  |  |  | glutathione levels of the liver and kidney after the inhibitor [3]: decreased to a very low value
CC(C)COC(=O)CNC(=O)[C@H](CS)NC(=O)CC[C@H](N)C(=O)O [GSH monoisobutyl ester, Isobutyl γ-L-glutamyl-L-cysteinylglycinate] | substantial elevation | substantial elevation | survived and were recovered clearly after 7 days | 
CC(C)OC(=O)CNC(=O)[C@H](CS)NC(=O)CC[C@H](N)C(=O)O [GSH monoisopropyl ester, Isopropyl γ-L-glutamyl-L-cysteinylglycinate] | substantial elevation | substantial elevation | survived and were recovered clearly after 7 days | 
CCCCCCOC(=O)CNC(=O)[C@H](CS)NC(=O)CC[C@H](N)C(=O)O [GSH mono-n-hexyl ester, n-Hexyl γ-L-glutamyl-L-cysteinylglycinate] | substantial elevation | substantial elevation | survived and were recovered clearly after 7 days | 
N[C@@H](CCC(=O)N[C@@H](CS)C(=O)NCC(=O)O)C(=O)O [GSH, L-γ-glutamyl-L-cysteinyl-glycine, reference compound] | slight elevation | No elevation |  | glutathione level of the kidney [1, 6]: only a slight effect
